Key:
Format in all cases: cell-based
[1] = system: FR-α promoter; test: FR-α promoter-luciferase reporter in IGROV-1 cells co-transfected with ER; settings: IGROV-1, ER co-transfected, 1 nM E2, pharmacologic concentrations of antiestrogen
Description: (§1) (FIG. 1A) HeLa and IGROV-1 cells (10^6) were co-transfected with the FR-α promoter-luciferase construct (400 ng) and either an ER expression plasmid (25 ng) or with the plasmid vector alone (25 ng) in the presence of 1 nM E2. Antiestrogens were introduced at the time of transfection. […] (FIG. 1B) The FR-α promoter-luciferase construct (400 ng) was transfected into BG-1 cells (10^6) in the absence or in the presence of E2 (1 nM) and antiestrogens were introduced at the time of transfection. (FIG. 1C) HeLa cells (10^6) were transfected with the thymidine kinase (TK)-promoter-luciferase (200 ng) or Rous Sarcoma Virus (RSV)-promoter-luciferase (200 ng) constructs and were co-transfected with either ER plasmid (25 ng) or with the plasmid vector (25 ng). Antiestrogens were introduced at the time of transfection.
(§2) Cell Culture and Transfection: HeLa I-1 cells were kindly provided by Dr. S. T. Rosen. BG-1 cells were provided by Dr. Randolf Ruch. […] Uniformity of transfection was routinely monitored through cotransfections with the β-galactosidase expression plasmid, pSV-β-gal (Promega). β-galactosidase activity was measured colorimetrically using the assay system available from Promega. […]

[2] = system: FR-α; test: Induction of endogenous FR-α in ER+/FRα-negative cells; settings: ER+/FRα-negative cells including BG-1; results not shown
Description: It appears that ER will only modulate the endogenous FR-α gene in cells in which the gene is transcriptionally active.

[3] = system: FR-α promoter; test: FR-α promoter-luciferase reporter in BG-1 cells (endogenous ER); settings: BG-1, endogenous ER
Description: as §1, §2

[4] = system: FR-α/SV40 (GC)6 promoter; test: FR-α/SV40 (GC)6 chimeric promoter-luciferase in HeLa cells with ER; settings: in the presence of ER
Description: FIG. 6C is a graph showing HeLa cells (10^6) which were transfected with FR-α promoter-luciferase (FR-α-Luc) (400 ng) [Seq. ID No. 6], FR-1-Luc in which the G/C-rich region (−47 nt to −18 nt) [Seq. ID No. 7] of the P4 promoter was replaced by the G/C-rich region in the SV40 early promoter (FR-α/SV40 (GC)6) (400 ng), or with FR-α-Luc[Seq. ID No. 6] in which the initiator region (−28 nt to +33 nt) [Seq. ID No. 8] was replaced by the TATA box-containing initiator region of the SV40 early promoter (FR-α/SV40-lnr) (400 ng). ER expression plasmid (25 ng) or the plasmid vector (25 ng) was co-transfected as indicated. The transfected cells were grown in the presence of E2 (1 nM) and either in the absence or in the presence of ICI 182, 780 for 48 h before harvesting them for luciferase assays.
DNA Constructs: Construct design used either natural restriction sites or restriction sites created by the polymerase chain reaction (PCR) using Vent DNA polymerase (New England Biolabs) and custom oligonucleotides from Gibco BRL. In cases where a natural restriction site could not be found for use, complementary primers containing an appropriate restriction site or point mutation were used in conjunction with upstream and downstream primers containing restriction sites. Alternatively, mutagenic oligonucleotides were used as end primers to amplify the desired fragment. […]

[5] = system: FR-α promoter; test: FR-α promoter-luciferase reporter in HeLa cells co-transfected with ER
Description: as §1
FIGS. 2A and 2B are graphs showing an estrogen and antiestrogen dose response of a control ERE-driven promoter and the FR-α promoter in HeLa cells. The Y-axis in FIG. 2A indicates promoter activation, whereas the Y-axis in FIG. 2B indicates promoter repression. The cells (10^6) were transfected with either ERE2E1b-luciferase (100 ng) (FIG. 2A) or FR-α promoter-luciferase (100 ng) (FIG. 2B) and co-transfected with the ER expression plasmid (50 ng) where indicated. Cells that were not co-transfected with the ER-plasmid were co-transfected instead with the plasmid vector alone (50 ng).
FIGS. 3A and 3B are graphs showing a time course of response of the control ERE2E1b-luciferase (FIG. 3A) and FR-α promoter luciferase (FIG. 3B) to antiestrogens in HeLa cells. The cells (10^6) were transfected with the indicated promoter-luciferase construct (100 ng) and co-transfected with ER expression plasmid (50 ng) in the presence of E2 (1 nM).
In one set of experiments, the antiestrogens were removed after a 6 h treatment.
Cell Culture and Transfection: HeLa I-1 cells were kindly provided by Dr. S. T. Rosen. BG-1 cells were provided by Dr. Randolf Ruch. HeLa (American Type Tissue Collection) and HeLa I-1 cells were routinely cultured in phenol red-free MEM supplemented with fetal bovine serum (FBS) (10%), penicillin (100 units/mL), streptomycin ([…]), and L-glutamine (2 mM). BG-1 and IGROV1 (American Type Tissue Collection) cells were routinely cultured in DMEM and supplemented as above. Treated or transfected cells were grown in phenol-red free media supplemented with charcoal-stripped FBS (5% v/v), penicillin (100 units/mL), streptomycin ([…]), L-glutamine (2 mM), insulin (2 μg/mL), and transferrin (40 μg/mL) unless otherwise noted. In addition, treated HeLa I-1 cells were grown in culture with 50 μg/mL G418. […] Uniformity of transfection was routinely monitored through cotransfections with the β-galactosidase expression plasmid, pSV-β-gal (Promega). β-galactosidase activity was measured colorimetrically using the assay system available from Promega.
Luciferase Assay: Forty-eight hours after transfection, the cells were washed once with PBS (10 mM sodium phosphate, pH 7.5, 150 mM NaCl) and harvested in 400 μL of reporter lysis buffer provided with the luciferase assay system (Promega). The samples were centrifuged at 12,000 g for 2 min at room temperature. The supernatant was assayed for luciferase activity in a luminometer (Lumat LB9501, Berthold) using the luciferase substrate from Promega.

[6] = system: FR-α promoter; test: FR-α promoter-luciferase in HeLa cells transfected with ERβ
Description: FIG. 8 is graph showing an effect of ERα vs. […] on FR-α promoter activity. HeLa cells (10^6) were transfected with the FR-α promoter-luciferase construct (200 ng) and co-transfected individually or in combination with expression plasmids (25 ng) for ERα, […] or with the plasmid vector. The cells were treated from the time of transfection with E2 (1 nm) and either without or with ICI 182, 780.
Effect of ERβ on FR-α Promoter activity: Since ER+ gynecological tumors are known to frequently co-express ERα and ERβ, the inventor herein tested whether ERβ may modulate FR-α similar to ERα or may otherwise counteract the effect of ERα.

SMILES: C[C@]12CC[C@@H]3c4ccc(O)cc4C[C@@H](CCCCCCCCC[S+]([O-])CCCC(F)(F)C(F)(F)F)[C@H]3[C@@H]1CC[C@@H]2O (stereo partly drawn) [ICI 182,780]
- FR-α promoter activity after repression by ER [1]: either partially or completely restored to the uninhibited values
- induction of endogenous FR-α expression [2]: In no case did the inventor observe induction
- FR-α promoter activity [3]: increased the promoter activity
- chimeric promoter activity [4]: this activation was counteracted
- duration of derepression after withdrawing the compound ([5]; 6 h treatment): at least 18 h
- derepression of FR-α promoter after 6 h treatment and withdrawal ([5]; 6 h treatment, then compound withdrawn): full derepression
- effect on FR-α promoter (ligand dose response) ([5]; HeLa, ER co-transfected): the repression was counteracted
- FR-α promoter activity after repression by ER ([5]; HeLa, ER co-transfected, 1 nM E2, pharmacologic concentrations of antiestrogen): either partially or completely restored to the uninhibited values
- reporter activity at the end of 48 h post-transfection ([5]; antiestrogen introduced 24 h after co-transfection): a doubling of the reporter activity
- onset of activation of FR-α promoter ([5]; antiestrogen introduced 24 h after transfection): began within hours and progressively increased
- FR-α promoter activity in the absence of ER ([5]; no ER co-transfected, HeLa and IGROV-1, results not shown): did not alter FR-α promoter activity
- repression of the FR-α promoter by ERβ [6]: reversed

— US20080131366A1, “Folate Receptor Gene Modulation For Cancer Diagnosis And Therapy” (priority 2003, published 2008)
